What was measured:
[1] = tested on: IL-2 production by Jurkat cells; test: IL-2 production assay; type: cell-based; settings: Jurkat cells stimulated with anti-CD3 antibody and PMA, 24 hours; compound pre-incubated in human serum; FIG. 2
Description: (§1) Pooled human serum was stored in aliquots at −80° C. Test compounds were added at 20 mM to thawed human serum in 1.5 ml microfuge tubes and incubated at 37° C. in a water bath for 48 hours. The test samples were placed on ice until dilution for the bioassay. Controls consisted of the compounds incubated in complete tissue culture medium (RPMI 1640 medium plus 5% heat-inactivated fetal calf serum, 1% HEPES, 1% pen/strep, 1% glutamine) rather than human serum.
Test samples, incubated in human serum as described in Example 2A, were diluted to 1 mM in complete tissue culture medium. Aliquots were placed in microculture plates that had been coated with anti-CD3 antibody (used to stimulate the production of IL-2 by Jurkat cells), and serial dilutions were prepared so that the final concentration would encompass the range of 0.001 to 10,000 nM in log increments. […] The stored supernatants were analyzed for human IL-2 concentration using the Luminex 100 (Luminex Corporation, Austin, Tex.), Luminex microspheres coupled with anti-IL-2 capture antibody, and fluorochrome-coupled anti-IL-2 detection antibody. The data were expressed as ng/ml of IL-2. […]

[2] = tested on: Jurkat human T lymphocyte cell line; test: Annexin V apoptosis assay; type: cell-based; settings: 24 hours, compound pre-incubated in human serum 48 hours, FIG. 1
Description: as §1
Test samples (incubated in human serum as described in section A) were diluted to 1 mM in complete tissue culture medium. Aliquots were placed in microculture plates and serial dilutions were prepared so that the final concentration would encompass the range of 2 to 6,000 nM with half-log increments. […]
After 24 hours, the plates were centrifuged to pellet the cells, and the cells were washed twice with 2% heat-inactivated fetal calf serum in PBS. […] The contents of the wells were individually transferred into test tubes, and apoptosis was analyzed using a FACSCalibur flow cytometer (BD Immunocytometry Systems, San Jose, Calif.). Cells positive for Annexin V binding were considered to be apoptotic, and the data were calculated as percent apoptotic cells. […]

[3] = tested on: HT-29 human colon cancer cell line; settings: HT-29 tumor xenografts, U.S. Pat. No. 6,620,843, cited from earlier work

SMILES | inhibition of IL-2 production [1] | induction of apoptosis (percent apoptotic cells, Annexin V) [2] | tumor regression [3] | tumor growth inhibition ([3]; in comparison to 5-FU and CPT-11)
CC(C)[C@]12O[C@H]1[C@@H]1O[C@]13[C@]1(O[C@H]1C[C@H]1C4=C(CC[C@@]13C)C(=O)OC4)[C@]2(C)O [PG670, 14-C-methyltriptolide] | inhibition of IL-2 production | dose-dependent induction of apoptosis |  | 
CC(C)[C@]12O[C@H]1[C@@H]1O[C@]13[C@]1(O[C@H]1C[C@H]1C4=C(CC[C@@]13C)C(=O)OC4)[C@@H]2OC(=O)CCC(=O)O [triptolide 14-succinate] |  |  | induced tumor regression | strongly inhibited tumor growth

Reference: US7098348B2, “Triptolide derivatives as immunomodulators and anticancer agents” (priority 2002, dated 2006)
